# Assay results as given in ChEMBL document CHEMBL1131657, “Syntheses and kinetic evaluation of hydroxamate-based peptide inhibitors of glyoxalase I” (Bioorg Med Chem Lett, 1998).
# Several values for one entry are separate records, joined by “and”; a condition that tells them apart may be missing. Equal entries are not always repeated. *1 amine or outer side, *2 acyl side, *3 side chain or, on linkers, in order; H or OH if unused. Where a SMILES comes first, the peptide text is derived from it. The star is where a group is joined. γGlu = O=C(O)[CH](CCC(=O)[*:2])N[*:1]; NHOH = ON*
# What was measured:
# Plasmodium falciparum [1] = experiment: Antimalarial activity against Plasmodium falciparum D6 (Sierra Leone); moderate activity; type: functional, organism-based
# SNB-75 [2] = experiment: Antitumor activity was evaluated for reduction of growth of SNB-75 cancer cells at a concentration of 100 uM; type: functional, Homo sapiens
# Plasmodium falciparum [3] = experiment: Antimalarial activity against Plasmodium falciparum W2 Indochina; moderate activity; type: functional, organism-based
# A498 = experiment: Antitumor activity was evaluated for reduction of growth of renal cancer (A498) cells at a concentration of 100 uM; type: functional, Homo sapiens
# SNB-75 [4] = experiment: Antitumor activity was evaluated for reduction of growth of CNS cancer (SNB-75)cells at a concentration of 100 uM; type: functional, Homo sapiens
# [5] = Antitumor activity was evaluated for reduction of growth of non-small cell lung (NCL-H522) cancer cells at a concentration of 100 uM; type: functional, Homo sapiens, Cancer cell lines
# HL-60 = experiment: Antitumor activity was evaluated for reduction of growth of leukemia(HL-60 (TB)) cancer cells at a concentration of 100 uM; type: functional, Homo sapiens
SMILES,Activity (Plasmodium falciparum [1]),Reduction (SNB-75 [2]),Activity (Plasmodium falciparum [3]),Reduction (A498),Reduction (SNB-75 [4]),Reduction [5],Reduction (HL-60)
CN(O)C(=O)CCC(NC(=O)CCC(N)C(=O)O)C(=O)NCC(=O)O (stereo not given),Poor or moderate activity,40%,Poor or moderate activity,–,–,–,–
CCOC(=O)CNC(=O)C(CCC(=O)NO)NC(=O)CCC(N)C(=O)O (stereo not given) (γGlu-Glu(NHOH)-Gly-OEt; configuration not given here),–,–,–,31%,–,–,–
NC(CCC(=O)NC(CCC(=O)NO)C(=O)NCC(=O)O)C(=O)O (stereo not given) (γGlu-Glu(NHOH)-Gly-OH; configuration not given here),Poor or moderate activity,–,Poor or moderate activity,34% and 31%,31%,38%,46%
